From patent US9402827B2, “Treatment of gout” (ARDEA BIOSCIENCES, INC., priority 2010, dated 2016)
Several values for one entry are separate records, joined by “and”; a condition that tells them apart may be missing. Identical values can stand only once.

What was measured:
IL-1β = test: Effect on IL-1β release after stimulation with ATP or MSU crystals (Example 1, FIG. 1); type: cell-based; conditions: within 1 hour of stimulation with ATP (5 mM) or 1 μg MSU crystals
Experimental: FIG. 1 illustrates the effect of Lesinurad on IL-1β release within 1 hour of stimulation with ATP (5 mM) or 1 μg MSU (monosodium urate) crystals (compd1=Lesinurad; C-1inh=caspase-1 inhibitor).
Activation of the inflammasome results in the release of preformed IL-1, which goes on to activate other targets as well as increase the production of IL-1 itself.

TNF-α = test: In vitro THP-1 (human cell) assay, TNF-α; type: cell-based; conditions: differentiated THP-1 cells, 6 hours, FIG. 3A
Experimental: Uric acid (2 g, Sigma, Cat #U0881, Log S89329-419) was heated in a flask at 200° C. for 2 hours. Endotoxin free water (396 mL) followed by aqueous sodium hydroxide solution (2.375 mL of 5N or 1.19 mL 10N) were added and heated on a stir plate until the uric acid dissolved. […] The solution was stirred at room temperature for 24 hours and then centrifuged at 1000 g for 10 min. The supernatant was discarded and resuspended in PBS and centrifuged at 1000 g for 10 min; this step was repeated twice. The washed crystals were heated at 60° C. until dry and then autoclaved at 200° C. for 2 hours. The crystals were then weighed and resuspended in PBS at a concentration of 26 mg/ml.
THP-1 cells were differentiated with 0.5 μM of phorbol myristate acetate (PMA) incubated for 3 hours. Cells were then spun down and washed once with HBSS. 1.25×10^6/mL cells were plated in white clear bottom white 96 well plate in 100 μL volume and incubated overnight. The next day the media was aspirated from the wells. 100 μL of 1× Optimem along with the compounds were added.

[1] = tested on: monosodium urate (MSU) crystal injection-induced inflammation; test: In vivo MSU-induced inflammation, rat air pouch study (Example 3B); parameters: species or system Sprague-Dawley rats; conditions: for Extravasation (optical absorbance at 620 nm), Av / Extravasation (optical absorbance at 620 nm), individual rats 1-10 / Exudate volume, Av / Exudate volume, individual rats 1-10 / Total white blood cell count, Av / Total white blood cell count, individual rats 1-10: 4 h after MSU
Experimental: (Air Pouch studies) were unpacked, placed in cages, a health inspection performed and a number assigned. […] Under anesthesia, 30 mL sterile air was injected subcutaneously on day 0 and day 3. Vehicle (water) or Lesinurad were administered orally. On the day of the experiment, rats were dosed with Vehicle, Lesinurad p.o., and/or colchicine s.c. (Sigma, Cat.#C9754, Lot.#188K1131). […] The pouch was gently massaged and the exudate was immediately removed from the air pouch. The exudate volume was measured and recorded for each animal. […] The supernatants were stored at −20° C. for cytokine analysis. […] Plasma extravasation was measured by optical absorbance at 620 nm for each exudate sample.

[2] = tested on: MSU-induced knee joint swelling; test: In vivo MSU-induced inflammation, rat knee joint study (Example 3C); parameters: species or system Sprague-Dawley rats
Experimental: [table] Groups 1 and 2 were orally dosed with Vehicle (sterile water) once daily for seven days from Day 1. […] Groups 6 and 7 were orally dosed with Lesinurad once daily for seven days from Day 1; Group 7 also received colchicine administered subcutaneously on Day 7. […] The injection was performed from the anterior aspect of the knee joint, which was slightly extended and flexed. […] Four hours after MSU administration, the rats were anesthetized, the diameter of right knee joints were measured with calipers; surface temperature for right knees were measured. Synovial lavage fluid from the knee was collected by injecting phosphate buffered saline with 1% BSA (0.2 mL) into the joint cavity, the fluid then collected, centrifuged and the supernatants stored at −80° C.

gout flares [3] = test: Phase II clinical trial, gout dose response study: incidence of gout flares (Example 4); type: in vivo, human
Experimental: Purpose: To compare the proportion of subjects whose serum urate (sUA) level is <6.0 mg/dL after 28 days of dosing by treatment group. Official Title: Randomized, Double-Blind, Multicenter, Placebo-Controlled, Safety and Efficacy Study of Lesinurad Versus Placebo in the Treatment of Hyperuricemia in Patients With Gout Experimental dosage form: 200 mg capsule of Lesinurad, with appropriate pharmaceutically acceptable excipients Design: • Control: Placebo Control • Endpoint Classification: Safety/Efficacy Study • Intervention Model: Parallel Assignment • Masking: Double Blind (Subject, Caregiver, Investigator, Outcomes Assessor) • Primary Purpose: Treatment Primary Outcome Measures: Compare the proportion of subjects whose serum urate (sUA) level is <6.0 mg/dL after 28 days of dosing by treatment group. […] [table] Inclusion Criteria: • Male or post-menopausal or surgically sterile female. • Hyperuricemic (i.e., screening sUA≧8 mg/dL). • Meets criteria for the diagnosis of gout as per the American Rheumatism Association (ARA) Criteria for the Classification of Acute Arthritis of Primary Gout (see Appendix B). • Willing and able to give informed consent and adhere to visit/protocol schedules (informed consent must be given before the first study procedure is performed).

gout flares [4] = test: as above; type: in vivo, human; remark: listed apart in the source

O=C(O)CSc1nnc(Br)n1-c1ccc(C2CC2)c2ccccc12 [Lesinurad, 2-(5-bromo-4-(4-cyclopropylnaphthalen-1-yl)-4H-1,2,4-triazol-3-ylthio)acetic acid]
IL-1 release (IL-1β): blocks IL-1 release very early
IC50 (TNF-α): ~52 µM
Extravasation (optical absorbance at 620 nm), Av ([1]; Lesinurad 0.1 mg/kg p.o.): 1.87
Extravasation (optical absorbance at 620 nm), individual rats 1-10 ([1]; Lesinurad 0.1 mg/kg p.o.): 1.84 and 1.83 and 1.89 and 2.19 and 1.54 and 2.14 and 1.94 and 1.61 and 1.90 and 1.88
Exudate volume, Av ([1]; Lesinurad 0.1 mg/kg p.o.): 9.18 mL
Exudate volume, individual rats 1-10 ([1]; Lesinurad 0.1 mg/kg p.o.): 8 mL (3×) and 9 mL and 11 mL and 10 mL and 9.6 mL and 9.2 mL and 7 mL and 12 mL
Total white blood cell count, Av ([1]; Lesinurad 0.1 mg/kg p.o.): 0.92 ×10^8
Total white blood cell count, individual rats 1-10 ([1]; Lesinurad 0.1 mg/kg p.o.): 0.14 ×10^8 (2×) and 0.07 ×10^8 and 2.28 ×10^8 and 2.75 ×10^8 and 0.48 ×10^8 and 0.92 ×10^8 and 0.03 ×10^8 and 2.00 ×10^8 and 0.39 ×10^8
Extravasation (optical absorbance at 620 nm), Av ([1]; Lesinurad 1 mg/kg p.o.): 1.87
Extravasation (optical absorbance at 620 nm), individual rats 1-10 ([1]; Lesinurad 1 mg/kg p.o.): 1.79 (2×) and 2.01 and 2.27 and 1.36 and 1.94 and 1.67 and 1.98 and 2.04 and 1.83
Exudate volume, Av ([1]; Lesinurad 1 mg/kg p.o.): 9.68 mL
Exudate volume, individual rats 1-10 ([1]; Lesinurad 1 mg/kg p.o.): 9.6 mL and 7 mL (2×) and 13 mL and 5 mL and 10 mL and 12 mL and 14 mL and 7.8 mL and 11.4 mL
Total white blood cell count, Av ([1]; Lesinurad 1 mg/kg p.o.): 0.41 ×10^8
Total white blood cell count, individual rats 1-10 ([1]; Lesinurad 1 mg/kg p.o.): 0.19 ×10^8 and 0.44 ×10^8 and 0.68 ×10^8 and 0.01 ×10^8 and 0.48 ×10^8 and 0.54 ×10^8 and 0.26 ×10^8 and 1.17 ×10^8 and 0.34 ×10^8 and 0.02 ×10^8
Extravasation, in words ([1]; Lesinurad 10 mg/kg): reduced extravasation
Extravasation (optical absorbance at 620 nm), Av ([1]; Lesinurad 10 mg/kg p.o.): 1.03
Extravasation (optical absorbance at 620 nm), individual rats 1-10 ([1]; Lesinurad 10 mg/kg p.o.): 1.20 and 0.93 and 0.89 and 0.77 and 0.71 and 0.97 and 0.82 (2×) and 1.94 and 1.25
Exudate volume, Av ([1]; Lesinurad 10 mg/kg p.o.): 8.29 mL
Exudate volume, individual rats 1-10 ([1]; Lesinurad 10 mg/kg p.o.): 7 mL and 10 mL and 6 mL (2×) and 8 mL and 9 mL (2×) and 12 mL and 8.4 mL and 7.5 mL
Total white blood cell count, Av ([1]; Lesinurad 10 mg/kg p.o.): 0.57 ×10^8
Total white blood cell count, individual rats 1-10 ([1]; Lesinurad 10 mg/kg p.o.): 0.60 ×10^8 and 0.15 ×10^8 and 0.08 ×10^8 and 0.16 ×10^8 and 0.55 ×10^8 and 1.01 ×10^8 and 1.02 ×10^8 and 0.95 ×10^8 and 0.29 ×10^8 and 0.90 ×10^8
Exudate volume, in words ([1]; Lesinurad 10 mg/kg/day): significantly reduced exudate volume
Number of white blood cells, in words ([1]; Lesinurad 0.1, 1 and 10 mg/kg/day): significantly lowered the number of white blood cells
Exudate volume, in words ([1]; Lesinurad 0.1 and 1 mg/kg/day): did not significantly reduce exudate volume
IL-4 levels in the exudates ([1]; cytokines measured in air pouch exudates): significantly reduced IL-4 levels
Average increase in knee diameter ([2]; Lesinurad 60 mg/kg p.o. once daily Day1-Day7, 4 h after MSU, p < 0.001 vs Vehicle): 0.46 mm
MSU-induced increase in knee diameter, in words ([2]; Lesinurad 60 mg/kg/day): significantly decreased the MSU-induced increase in knee diameter
Mean Duration of Flares (by dose at time of flare) (gout flares [3]; 200 mg at time of flare): 4 days
% of patients with Flares by Dose at Time of Flare (gout flares [3]; 200 mg at time of flare (6/96)): 6% (6/96)
Mean Duration of Flares (by dose at time of flare) (gout flares [3]; 400 mg at time of flare): 2 days
% of patients with Flares by Dose at Time of Flare (gout flares [3]; 600 mg at time of flare (3/32)): 9% (3/32)
Mean Duration of Flares (gout flares [3]; Randomized dose group 200 mg): 4 days
% Patients with Flares (gout flares [3]; Randomized dose group 200 mg, N 31): 6%
Mean Duration of Flares (gout flares [3]; Randomized dose group 400 mg): 3.8 days
% Patients with Flares (gout flares [3]; Randomized dose group 600 mg, N 32): 13%
% of patients with Flares by Dose at Time of Flare (gout flares [4]; 400 mg at time of flare (1/65)): 2% (1/65)
Mean Duration of Flares (by dose at time of flare) (gout flares [4]; 600 mg at time of flare): 1.7 days
% Patients with Flares (gout flares [4]; Randomized dose group 400 mg, N 33): 12%
Mean Duration of Flares (gout flares [4]; Randomized dose group 600 mg): 1.5 days
Duration of flares, in words (gout flares [4]; across dose groups 200-600 mg): shorter at higher doses
Flares in the first week out of total flares on drug (gout flares [4]; first week, patients receiving 200 mg QD): 6/10
